Common to all, as to assay: relative viability (nuclei count vs DMSO), 5 days (fraction); higher = more cells survive
Compound in test [1]: Cc1cnc(CNC(=O)c2c(=O)c3ccc(N4CCCN(C)CC4)nc3n3c2sc2ccccc23)cn1 [CX-5461] + COc1cc2c(Oc3ccc(NC(=O)C4(C(=O)Nc5ccc(F)cc5)CC4)cc3F)ccnc2cc1OCCCN1CCOCC1 [Foretinib] (partner 0.25 µM)
Put shortly: (§1)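 Relative viability divides the nuclei count in treated wells by that in vehicle wells. Lung cancer cell lines were seeded in 1536-well plates, dosed by pin tool the next day, and fixed and stained after 5 days in one step with final 0.05% Triton X-100, 1% formaldehyde and 1 ug/ml Hoechst. Dosing was a single drug or a fixed anchor-drug dose plus five library-drug doses (not always all listed) in √10 steps, and values are medians of duplicate plates imaged at 4×.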

Compound in test [2]: O=C(Nc1cc(C(F)(F)F)cc(C(F)(F)F)c1)c1cc(Cl)ccc1O [IMD-0354] + CS(=O)(=O)N1CCN(Cc2cc3nc(-c4cccc5[nH]ncc45)nc(N4CCOCC4)c3s2)CC1 [Pictilisib] (partner 1 µM)
Put shortly: as §1

Compound in test [3]: O=C(Nc1cc(C(F)(F)F)cc(C(F)(F)F)c1)c1cc(Cl)ccc1O [IMD-0354] + C[C@@H](Oc1cc(-c2cnn(C3CCNCC3)c2)cnc1N)c1c(Cl)ccc(F)c1Cl [Crizotinib] (partner 1 µM)
Put shortly:
as §1

Compound in test [4]: O=C(Nc1cc(C(F)(F)F)cc(C(F)(F)F)c1)c1cc(Cl)ccc1O [IMD-0354] + C[C@]1(O)C[C@@H](c2nc(-c3ccc4ccc(-c5ccccc5)nc4c3)c3c(N)nccn32)C1 [Linsitinib] (partner 1 µM)
Put shortly:
as §1

For the cell line UMC-11, the relative viability is 1.02 in test [1] (first compound 0.01 µM); 1.08 in test [1] (first compound 0.03162 µM); 0.906 in test [1] (first compound 0.1 µM); 1.15 in test [1] (first compound 0.3162 µM); 0.336 in test [1] (first compound 1 µM); 0.939 in test [2] (first compound 0.04 µM). In addition, the relative viability in test [2] (first compound 0.1265 µM) came out at 0.868; in test [2] (first compound 0.4 µM) it was 0.542; in test [2] (first compound 1.265 µM), 0.187; in test [2] (first compound 4 µM) it was 0.223; in test [3] (first compound 0.04 µM) it was 0.701; in test [3] (first compound 0.1265 µM) it was 0.578. For the same cell line, the relative viability in test [3] (first compound 0.4 µM) was determined as 0.432; in test [3] (first compound 1.265 µM), 0.263; in test [3] (first compound 4 µM), 0.267; in test [4] (first compound 0.04 µM), 1.04; in test [4] (first compound 0.1265 µM), 1.04; in test [4] (first compound 0.4 µM), 0.559. Further, the relative viability in test [4] (first compound 1.265 µM) was determined as 0.254; in test [4] (first compound 4 µM), 0.285.
